According to ChEMBL document CHEMBL4813989, “Design, synthesis, and biological evaluation of nitroisoxazole-containing spiro[pyrrolidin-oxindole] derivatives as novel glutathione peroxidase 4/mouse double minute 2 dual inhibitors that inhibit breast adenocarcinoma cell proliferation” (Eur J Med Chem, 2021):
Active and inactive are the calls of the source. No cut-off for these calls is given here.

What was measured:
[1] = test system: MCF7; test: Antiproliferative activity against human MCF7 cells assessed as reduction in cell growth incubated for 48 hrs in presence of Fer-1 by CCK8 assay; settings: MCF7, 48 h
[2] = test system: MCF-10A; test: Cytotoxicity against human MCF-10A cells assessed as reduction in cell viability incubated for 48 hrs by CCK8 assay; format: cell-based
[3] = test system: MCF7; test: Antiproliferative activity against human MCF7 cells assessed as reduction in cell growth incubated for 48 hrs by CCK8 assay; settings: MCF7, 48 h
[4] = target: E3 ubiquitin-protein ligase Mdm2 (Homo sapiens, UniProt Q00987); test: Inhibition of MDM2 (unknown origin) using peptide as substrate incubated for 30 mins by fluorescence polarization assay
Chain of E3 ubiquitin-protein ligase Mdm2 (Q00987 whole entry): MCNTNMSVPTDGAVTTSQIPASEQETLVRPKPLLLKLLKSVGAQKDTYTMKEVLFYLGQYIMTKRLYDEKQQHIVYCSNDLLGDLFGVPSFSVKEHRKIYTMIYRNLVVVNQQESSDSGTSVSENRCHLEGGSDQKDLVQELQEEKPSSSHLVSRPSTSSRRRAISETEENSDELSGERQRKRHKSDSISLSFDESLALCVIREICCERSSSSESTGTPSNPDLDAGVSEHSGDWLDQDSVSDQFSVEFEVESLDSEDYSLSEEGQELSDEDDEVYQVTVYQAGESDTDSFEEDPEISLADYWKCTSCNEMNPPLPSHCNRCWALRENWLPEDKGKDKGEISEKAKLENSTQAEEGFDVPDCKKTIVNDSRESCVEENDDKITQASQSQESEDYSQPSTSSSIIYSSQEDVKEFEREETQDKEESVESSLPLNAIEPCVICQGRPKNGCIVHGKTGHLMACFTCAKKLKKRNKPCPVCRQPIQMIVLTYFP

[5] = target: T1, Phospholipid hydroperoxide glutathione peroxidase GPX4 (Homo sapiens) (UniProt P36969); test: Inhibition of GPX4 in human MCF7 cells assessed as increase in GPX4 degradation incubated for 48 hrs by Western blot analysis; format: cell-based; settings: dose 0.1-2 µM
T1 sequence (whole entry): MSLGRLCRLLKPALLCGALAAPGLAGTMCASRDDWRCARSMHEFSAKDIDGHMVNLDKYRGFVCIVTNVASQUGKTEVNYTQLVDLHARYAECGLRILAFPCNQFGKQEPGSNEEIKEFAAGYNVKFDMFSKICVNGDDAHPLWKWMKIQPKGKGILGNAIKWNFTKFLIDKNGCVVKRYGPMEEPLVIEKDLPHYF

[6] = test system: MCF7; test: Induction of apoptosis in human MCF7 cells assessed as increase in cleaved caspase-9 level at 2 uM incubated for 48 hrs by Western blot analysis; format: functional, cell-based
[7] = test system: MCF7; test: Induction of apoptosis in human MCF7 cells at 0.1 to 1 uM incubated for 48 hrs in presence of Fer-1 by annexin-V-FITC and PI staining based flow cytometry analysis; format: functional, cell-based; settings: dose 0.1-1 µM
[8] = test system: MCF7; test: Induction of apoptosis in human MCF7 cells at 0.1 to 1 uM incubated for 48 hrs by annexin-V-FITC and PI staining based flow cytometry analysis; format: functional, cell-based; settings: dose 0.1-1 µM

Compound	IC50 [1] [µM]	Activity [2]	IC50 [3] [µM]	Ki [4] [µM]	inhibition [5]	Activity [6]	Activity [7]	Activity [8]
COc1ccc([C@H]2[C@H](C(F)(F)F)N[C@@]3(C(=O)Nc4ccccc43)[C@@H]2c2onc(C)c2[N+](=O)[O-])cc1OC	> 20	Non-Toxic	4.13	–	–	–	–	–
Cc1onc(C(=O)N2CCN(C(c3ccc(Cl)cc3)c3ccc(Cl)cc3)CC2)c1[N+](=O)[O-]	> 20	–	0.076	–	–	–	–	–
Cc1noc([C@@H]2[C@@H](c3ccccc3)[C@H](C(F)(F)F)N[C@@]23C(=O)Nc2ccc(F)cc23)c1[N+](=O)[O-]	15.6	Non-Toxic	0.21	–	–	–	–	–
Cc1noc([C@@H]2[C@@H](c3ccc(F)cc3)[C@H](C(F)(F)F)N[C@@]23C(=O)Nc2ccccc23)c1[N+](=O)[O-]	17.4	Non-Toxic	0.55	–	–	–	–	–
Cc1noc([C@@H]2[C@@H](c3cc(Cl)ccc3Cl)[C@H](C(F)(F)F)N[C@@]23C(=O)Nc2ccccc23)c1[N+](=O)[O-]	> 20	Non-Toxic	3.98	> 10	–	–	–	–
Cc1noc([C@@H]2[C@@H](c3ccccc3Cl)[C@H](C(F)(F)F)N[C@@]23C(=O)Nc2ccccc23)c1[N+](=O)[O-]	> 20	Non-Toxic	3.77	> 10	–	–	–	–
Cc1noc([C@@H]2[C@@H](c3ccc(Cl)cc3)[C@H](C(F)(F)F)N[C@@]23C(=O)Nc2ccccc23)c1[N+](=O)[O-]	> 20	Non-Toxic	1.14	–	–	–	–	–
Cc1ccc2c(c1)[C@]1(N[C@@H](C(F)(F)F)[C@H](c3ccccc3)[C@H]1c1onc(C)c1[N+](=O)[O-])C(=O)N2	18.1	Non-Toxic	4.91	–	–	–	–	–
Cc1ccccc1[C@H]1[C@H](C(F)(F)F)N[C@@]2(C(=O)Nc3ccccc32)[C@@H]1c1onc(C)c1[N+](=O)[O-]	> 20	Non-Toxic	3.5	> 10	–	–	–	–
Cc1noc([C@@H]2[C@@H](c3ccccc3)[C@H](c3ccccc3)N[C@@]23C(=O)Nc2ccccc23)c1[N+](=O)[O-]	> 20	Non-Toxic	5.24	–	–	–	–	–
COc1ccc(C2=NC(c3ccc(Cl)cc3)C(c3ccc(Cl)cc3)N2C(=O)N2CCNC(=O)C2)c(OC(C)C)c1 (stereo not drawn)	15.7	–	14.6	–	inactive	Active	–	–
Cc1noc([C@@H]2[C@@H](c3ccccc3)[C@H](C(F)(F)F)N[C@@]23C(=O)Nc2cc(Br)ccc23)c1[N+](=O)[O-]	13.7	Non-Toxic	0.17	–	–	–	Active	Active
C=CCN1C(=O)[C@@]2(N[C@@H](C(F)(F)F)[C@H](c3ccccc3)[C@H]2c2onc(C)c2[N+](=O)[O-])c2ccccc21	> 20	Non-Toxic	3.42	> 10	–	–	–	–
Cc1noc([C@@H]2[C@@H](c3ccc([N+](=O)[O-])cc3)[C@H](C(F)(F)F)N[C@@]23C(=O)Nc2ccccc23)c1[N+](=O)[O-]	> 20	Non-Toxic	5.36	–	–	–	–	–
Cc1noc([C@@H]2C(c3cccs3)[C@H](C(F)(F)F)N[C@@]23C(=O)Nc2ccccc23)c1[N+](=O)[O-] (single isomer, unassigned)	19	Non-Toxic	1.53	–	–	–	–	–
CC(=O)N1C(=O)[C@@]2(N[C@@H](C(F)(F)F)[C@H](c3ccccc3)[C@H]2c2onc(C)c2[N+](=O)[O-])c2ccccc21	> 20	Non-Toxic	3.23	> 10	–	–	–	–

Compound	IC50 [1] [µM]	Activity [2]	IC50 [3] [µM]	Ki [4] [µM]	inhibition [5]	Activity [6]	Activity [7]	Activity [8]
Cc1noc([C@@H]2C(c3ccco3)[C@H](C(F)(F)F)N[C@@]23C(=O)Nc2ccccc23)c1[N+](=O)[O-] (single isomer, unassigned)	14.3	Non-Toxic	1.46	–	–	–	–	–
Cc1noc([C@@H]2[C@@H](c3cccc(F)c3)[C@H](C(F)(F)F)N[C@@]23C(=O)Nc2ccccc23)c1[N+](=O)[O-]	15.6	Non-Toxic	0.87	–	–	–	–	–
Cc1noc([C@@H]2[C@@H](c3ccccc3)[C@H](C(F)(F)F)N[C@@]23C(=O)Nc2ccc([N+](=O)[O-])cc23)c1[N+](=O)[O-]	> 20	Non-Toxic	4.75	–	–	–	–	–
Cc1noc([C@@H]2[C@@H](c3ccccc3)[C@H](C(F)(F)F)N[C@@]23C(=O)N(C)c2ccccc23)c1[N+](=O)[O-]	> 20	Non-Toxic	3.52	> 10	–	–	–	–
Cc1ccc([C@H]2[C@H](C(F)(F)F)N[C@@]3(C(=O)Nc4ccccc43)[C@@H]2c2onc(C)c2[N+](=O)[O-])cc1	18.8	Non-Toxic	2.81	–	–	–	–	–
Cc1noc([C@@H]2[C@@H](c3ccccc3Br)[C@H](C(F)(F)F)N[C@@]23C(=O)Nc2ccccc23)c1[N+](=O)[O-]	> 20	Non-Toxic	4.71	> 10	–	–	–	–
Cc1noc([C@@H]2[C@@H](c3cccc4ccccc34)[C@H](C(F)(F)F)N[C@@]23C(=O)Nc2ccccc23)c1[N+](=O)[O-]	> 20	Non-Toxic	7.17	–	–	–	–	–
Cc1noc([C@@H]2[C@@H](c3ccccc3)[C@H](C(F)(F)F)N[C@@]23C(=O)Nc2ccc(Cl)cc23)c1[N+](=O)[O-]	19.8	Non-Toxic	0.37	–	–	–	–	–
Cc1noc([C@@H]2[C@@H](c3ccccc3)[C@H](C(F)(F)F)N[C@@]23C(=O)Nc2ccccc23)c1[N+](=O)[O-]	17.6	Non-Toxic	0.38	–	–	–	–	–
Cc1noc([C@@H]2[C@@H](c3ccc(C(C)C)cc3)[C@H](C(F)(F)F)N[C@@]23C(=O)Nc2ccccc23)c1[N+](=O)[O-]	> 20	Non-Toxic	2.83	–	–	–	–	–
Cc1noc([C@@H]2[C@@H](c3cccc(Br)c3)[C@H](C(F)(F)F)N[C@@]23C(=O)Nc2ccccc23)c1[N+](=O)[O-]	> 20	Non-Toxic	2.31	–	–	–	–	–
Cc1noc([C@@H]2[C@@H](c3ccc(Br)cc3)[C@H](C(F)(F)F)N[C@@]23C(=O)Nc2ccccc23)c1[N+](=O)[O-]	17	Non-Toxic	3.01	–	–	–	–	–
Cc1noc([C@@H]2[C@@H](c3ccc(Cl)c(Cl)c3)[C@H](C(F)(F)F)N[C@@]23C(=O)Nc2ccccc23)c1[N+](=O)[O-]	> 20	Non-Toxic	3.22	–	–	–	–	–
Cc1noc([C@@H]2[C@@H](c3ccccc3)[C@H](C(F)(F)F)N[C@@]23C(=O)Nc2ccc(Br)cc23)c1[N+](=O)[O-]	16.3	Non-Toxic	0.55	–	–	–	–	–
COc1ccccc1[C@H]1[C@H](C(F)(F)F)N[C@@]2(C(=O)Nc3ccccc32)[C@@H]1c1onc(C)c1[N+](=O)[O-]	> 20	Non-Toxic	4.59	> 10	–	–	–	–
